Laboratory results as given in US20250019371A1, “SMALL-MOLECULAR INHIBITORS FOR THE BETA-CATENIN/ B-CELL LYMPHOMA 9 PROTEIN-PROTEIN INTERACTION” (H. LEE MOFFITT CANCER CENTER AND RESEARCH INSTITUTE, INC., priority 2021, published 2025).
Like-named read-outs stand apart in the source and are kept apart here.

Columns and labels:
MCF10A = assay: MTS cell viability assay, MCF10A; format: cell-based, human; conditions: for IC50: Homo sapiens, MCF-10A, 72 h, Wnt/β-catenin normal, mean ± SD (n = 3)
Method: (§1) MTS Cell Growth Inhibition Experiments. Colorectal cancer cells (SW480 and HCT116) and triple negative breast cancer cells (MDA-MB-231 and MDA-MB-468) were seeded in 96-well plates at 5×10^3 cells/well in DMEM with 10% FCS, maintained overnight at 37° C., and incubated with the tested compounds at various concentrations. Human mammary epithelial cell MCF10A were seeded in 96-well plates at 1×10^4 cells/well in MEGM (CC-3150, Lonza) with 100 ng/mL cholera toxin, maintained overnight at 37° C., and incubated with the tested compounds at various concentrations. Cell viability was monitored after 72 h using a freshly prepared mixture of 1 part phenazine methosulfate (PMS, Sigma) solution (0.92 mg/mL) and 19 parts 3-(4,5-dimethylthiazol-2-yl)-5-(3-carboxymethoxyphenyl)-2-(4-sulfophenyl)-2H-tetrazolium (MTS, Promega) solution (2 mg/mL). Cells were incubated in 10 μL of this solution at 37° C. for 3 h, and A490 was measured. […] Experiments were performed in triplicate.

MDA-MB-231 = assay: MTS cell viability assay, MDA-MB-231; format: cell-based; conditions: Homo sapiens, 72 h, Wnt/β-catenin hyperactive, mean ± SD (n = 3)
Method: as §1

HCT116 = assay: MTS cell viability assay, HCT116; format: cell-based; conditions: Homo sapiens, HCT-116; 72 h, Wnt/β-catenin hyperactive, mean ± SD (n = 3)
Method: as §1

MDA-MB-468 = assay: MTS cell viability assay, MDA-MB-468; format: cell-based; conditions: Homo sapiens, 72 h, Wnt/β-catenin hyperactive, mean ± SD (n = 3)
Method: as §1

SW480 = assay: MTS cell viability assay, SW480; format: cell-based; conditions: Homo sapiens, 72 h, Wnt/β-catenin hyperactive, mean ± SD (n = 3)
Method: as §1

β-catenin/BCL9 PPI = target: T1, β-catenin/BCL9 PPI (Homo sapiens, UniProt P35222); assay: AlphaScreen competitive inhibition assay of β-catenin/BCL9 PPI; format: binding; conditions: for AlphaScreen inhibitory activity in words: SAR comparison
T1 construct: Full-length β-catenin (residues 1-781); host or cells: E. coli BL21 DE3
T1 sequence (P35222 1-781): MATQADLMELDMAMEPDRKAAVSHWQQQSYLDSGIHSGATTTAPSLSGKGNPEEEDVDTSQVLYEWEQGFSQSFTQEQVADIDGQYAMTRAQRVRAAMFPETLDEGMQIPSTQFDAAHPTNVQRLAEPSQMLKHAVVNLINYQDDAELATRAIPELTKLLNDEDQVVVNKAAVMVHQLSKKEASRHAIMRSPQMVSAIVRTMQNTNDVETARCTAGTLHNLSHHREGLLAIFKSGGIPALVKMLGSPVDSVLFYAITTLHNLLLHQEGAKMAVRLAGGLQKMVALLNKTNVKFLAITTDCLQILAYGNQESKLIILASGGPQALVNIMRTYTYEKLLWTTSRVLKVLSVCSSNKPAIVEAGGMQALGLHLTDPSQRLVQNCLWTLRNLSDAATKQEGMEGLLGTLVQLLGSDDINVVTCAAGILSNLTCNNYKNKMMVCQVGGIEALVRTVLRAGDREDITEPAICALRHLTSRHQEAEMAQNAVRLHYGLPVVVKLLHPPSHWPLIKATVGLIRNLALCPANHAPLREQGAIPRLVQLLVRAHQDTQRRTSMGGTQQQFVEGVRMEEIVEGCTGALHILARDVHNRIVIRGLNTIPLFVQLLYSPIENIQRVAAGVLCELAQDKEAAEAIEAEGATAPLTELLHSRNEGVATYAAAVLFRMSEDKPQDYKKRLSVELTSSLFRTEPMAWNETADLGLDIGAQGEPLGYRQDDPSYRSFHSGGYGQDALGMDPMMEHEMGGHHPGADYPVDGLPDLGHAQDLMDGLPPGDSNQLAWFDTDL
Method: AlphaScreen Assays of β-Catenin and BCL9 Interaction. Experiments were performed in white opaque 384-well plates from PerkinElmer (Waltham, MA), and the samples were read on a Biotek Synergy 2 plate reader (Winooski, VT) with excitation at 680 nm and emission at 570 nm. The standard AlphaScreen protocol was used with a sensitivity setting of 200. All dilutions were made in 1x assay buffer containing 25 mM Hepes (pH 7.4), 100 mM NaCl, 0.01% Triton X-100 and 0.1% BSA to minimize nonspecific interactions.
For the β-catenin/BCL9 assay, 5 nM biotinylated BCL9, and 50 nM His6-tagged 8-catenin were incubated in assay buffer for 30 min. Different concentrations of the tested inhibitor were added and incubated in 20 μL assay buffer for another 1 h. All of the assay plates were covered and gently mixed on an orbital shaker. Donor and acceptor beads were then added to the plates to a final concentration of 10 μg/mL in 25 μL assay buffer. The mixture was incubated for 1 h before detection. The IC50 value was determined by nonlinear least-square analysis of GraphPad Prism 8.0. […] All of the experiments were performed in triplicate and carried out in the presence of 1% DMSO for small-molecule inhibitors. Each compound was assayed at least by three independent experiments. The results were expressed as mean±standard deviation.

[1] = tested on: Wnt/β-catenin signaling (TOPFlash luciferase reporter); assay: TOPFlash luciferase reporter assay in SW480 cells; format: cell-based; conditions: Homo sapiens, 24 h
Method: The suppressing effect of the inhibitors on transactivation of Wnt/β-catenin signaling was evaluated by the TOPFlash/FOPFlash luciferase reporter assay. In the TOPFlash assay, the luciferase reporter has three wild-type Tcf4 binding sites, while in the FOPFlash assay Tcf4 binding sites were mutated. These tandem Tcf binding sites controls the expression ratio of the firefly luciferase in TOPFlash/FOPFlash assays. The renilla luciferase reporter construct (pCMV-RL) was used as the internal control to normalize luciferase reporter signals and eliminate any possible systematic errors. […] This selectivity trend is consistent with that from MTS cell viability assays. Therefore, further cell-based studies were focused on compound 30.
Cell Transfection and Luciferase Assay. FuGENE6 (E269A, Promega) 96 well plate format was used for the transfection of SW480 cells according to the manufacturer's instruction. SW480 cells were co-transfected with 60 ng the TOPFlash or FOPFlash firefly luciferase reporter gene and 40 ng renilla luciferase pCMV-RL normalization reporter gene. Cells were cultured in DMEM and 10% FBS at 37° C. for 24 h, and different concentrations of inhibitors or DMSO was added. After 24 h, the luciferase reporter activity was measured using the Dual-Glo system (E2940, Promega). […]

[2] = tested on: Wnt/β-catenin hyperactive cancer cells; assay: MTS cell viability assays, cell panel; format: cell-based; conditions: Homo sapiens, MCF-10A; all tested cells incl. MCF10A; read-out: MTS IC50 on all tested cells
Method: as §1

Row | SMILES | IC50 (MCF10A) | selectivity for hyperactive cancer cells over normal MCF10A cells (MCF10A; MTS IC50 MCF10A versus cancer cells) | IC50 (MDA-MB-231) | IC50 (HCT116) | IC50 (MDA-MB-468) | IC50 (SW480) | AlphaScreen inhibitory activity in words (β-catenin/BCL9 PPI) | IC50 (β-catenin/BCL9 PPI; Table 2, AlphaScreen, inhibitors 27-30 (R- and S-isomers), preliminary) | Ki (β-catenin/BCL9 PPI; Table 2, AlphaScreen, inhibitors 27-30 (R- and S-isomers), preliminary, read-out: Ki) | IC50 [1] | Ki (β-catenin/BCL9 PPI; AlphaScreen competitive inhibition assay, read-out: Ki for disruption of the β-catenin/BCL9 PPI) | IC50 (β-catenin/BCL9 PPI; Table 1, AlphaScreen, inhibitors 16-26) | Ki (β-catenin/BCL9 PPI; Table 1, AlphaScreen, inhibitors 16-26, Ki derived from IC50, read-out: Ki) | IC50 [2]
1 | COc1cccc(S(=O)(=O)NC(=O)C(C)(C)Oc2cccc(N3CCC[C@H](C(=O)N(Cc4ccc(-c5cccs5)cc4)C4CC4)C3)c2)c1 [Compound 28, (S)—N-Cyclopropyl-1-(3-((1-((3-methoxyphenyl)sulfonamido)-2-methyl-1-oxopropan-2-yl)oxy)phenyl)-N-(4-(thiophen-2-yl)benzyl) piperidine-3-carboxamide] | 30.4 ± 2.47 µM | much less selective over MCF10A cells | 19.8 ± 1.59 µM | 29.9 ± 1.99 µM | 15.4 ± 2.49 µM | 28.2 ± 1.08 µM | slightly superior to R-isomer | ≤ 5 µM | ≤ 5 µM | 7.8 µM | – | – | – | –
2 | CC(C)(C)OC(=O)C(C)(C)Oc1cccc(N2CCCC(C(=O)N(Cc3ccc(-c4cccs4)cc3)C3CC3)C2)c1 (centres unmarked) [Compound 17, tert-Butyl 2-(3-(3-(cyclopropyl(4-(thiophen-2-yl)benzyl)carbamoyl)piperidin-1-yl)phenoxy)-2-methylpropanoate] | > 200 µM | – | > 200 µM | > 200 µM | > 200 µM | > 200 µM | significant potency loss | – | – | – | > 90 µM | > 100 µM | > 90 µM | > 200 µM
